Literature values as cited in patent publication US20130084272A1, “COMPOSITIONS, KITS AND METHODS FOR NUTRITIONAL SUPPLEMENTATION WITH TWELVE CARBON CHAIN FATTY ACIDS AND TWELVE CARBON CHAIN ACYLGLYCEROLS” (priority 2011, published 2013).

Test system: exotoxins from Gram-positive bacteria
Details: Peterson et al. 2006; cited from earlier work

CCCCCCCCCCCC(=O)OCC(O)CO (stereo not shown) [monolaurin, glycerol monolaurate]
Effect on exotoxins from Gram-positive bacteria: inhibit the effects of exotoxins
